According to patent US7435252B2, “Control of microorganisms in the sino-nasal tract” (priority 2003, dated 2008):
Entries after “also recorded” stand apart in the source; their conditions may differ.

What was measured:
P. gingivalis ATCC 33277 = assay: Lethal photosensitization of P. Gingivalis, colony count; type: cell-based, Porphyromonas Gingivalis
From the text: (§1) Bacteria. Prevotella Intermedia is isolated from patient sample material, identified in the laboratory using standard diagnostic test systems (Remel Inc., Lenexa, Kans., USA) and is maintained by twice-weekly subculture in thioglycollate medium (Becton Dickinson and Co, Sparks, Md., USA). P. gingivalis ATCC 33277 obtained from Remel Inc., is maintained by a twice-weekly subculture on CDC anaerobe blood agar (Becton Dickinson and Co, USA) and in thioglycollate medium (Becton Dickinson and Co, USA).
(§2) Light Source. The source for light energy is a continuously working, high intensity halogen lamp having a built-in 250-Watt quartz halogen light source, model 1-250 supplied by Medithon, New York, N.Y., USA. Such lights are customarily employed for ear, nose or throat procedures. The light is transmitted through a flexible light guide and filtered to maintain maximum energy output at wavelengths in the vicinity of about 650 nm using a broadband red filter (Edmund Optics Inc., Barrington, N.J., USA). The light output power density measured at 3 cm distance from the end of the light guide with filter is about 50 milliwatts/cm2.
Photosensitizer. […] Serial dilutions with water of initial solution with respective concentrations of 0.1%, 0.075%, 0.05%, 0.025% and 0.01% are prepared from the initial solution using sterile 10-ml bottles of normal saline and sterile syringes. […]

[1] = test system: Porphyromonas Gingivalis and Prevotella Intermedia; assay: Lethal photosensitization of oral pathogens in vitro, colony count after methylene blue stain and red-filtered halogen light; type: cell-based
Description: Suitable stain dosages for providing lethal sensitization of oral pathogens are determined in vitro by the following procedure. An objective is to determine the minimum duration of light exposure and minimum agent dilution required to achieve at least a 50% reduction in bacteria counts. Experimental tests are performed on two common pathogens using a continuously working, high intensity, red filtered halogen lamp. Red light from the filtered halogen lamp is transmitted through a flexible light guide to radiate downwardly onto petri dishes containing samples of live bacteria of species Porphyromonas Gingivalis and Prevotella Intermedia using the protocols described below.
as §1, §2
Photosensitizer. […] Serial dilutions with water of initial solution with respective concentrations of 0.1%, 0.075%, 0.05%, 0.025% and 0.01% are prepared from the initial solution using sterile 10-ml bottles of normal saline and sterile syringes.
Lethal photosensitization of P. Intermedia. Petri dishes containing CDC anaerobe blood agar (Becton Dickinson and Co, USA) are inoculated with 0.5 ml of broth containing 5×10^5 CFU/ml and left closed at room temperature for about 10 minutes to let the broth penetrate the agar media. […] Only plates with concentrations of 0.01%, and 0.025% are used in the experiment with 20 min light exposure. Four plates are used for each experiment. […] The controls are covered to protect them from ambient light. […] A total of 108 subcultures is used for the experiment. Plates are incubated in anaerobic conditions in the jars using anaerobic pack kits (BBL GasPak Plus, Becton Dickinson and Co, Sparks, Md., USA) at 37° C. for 24 hours. Samples of the resulting culture growth are taken from each plate with sterile […] standard loop, dispensed in 1 ml of sterile NS and placed at the same media. Cultures are incubated at anaerobic conditions at 37° C. for another 24 hours, and after that the resulting colony count is performed on each plate.
Lethal photosensitization of P. Gingivalis. Serial dilutions of the P. gingivalis culture are prepared from the initial culture preserved on plates using 1:L sterile standard loop (Becton Dickinson and Co, USA) and sterile NS. AVitek calorimeter (Hach Company, Loveland, Colo., USA) is used to achieve a final concentration of about 5×10^3 CFU/ml from an initial 0.5 standard McFarland suspension of 10^8 CFU/ml. Plates containing CDC anaerobic blood agar (Becton Dickinson and Co, USA) are inoculated with the resulting suspension using sterile 10:L standard loops (Becton Dickinson and Co, USA). […] Plates are also incubated at 37° C. in the tightly closed jars supplied with anaerobic pack kits (BBL GasPak Plus, Becton Dickinson and Co, USA) for 24 hours, and the resulting colony count is performed on each plate.
Statistical analyses can be carried out using single-factor analysis of variance.

Candida albicans = settings: MB 450 and 500 microgram/mL, diode laser light 664 nm, 275 J/cm fiber length, 400 mW, 687.5 seconds, immunosuppressed murine model; cited from earlier work
[2] = test system: Porphyromonas Gingivalis and Prevotella Intermedia; assay: Lethal photosensitization of oral pathogens in vitro, colony count after methylene blue stain and red-filtered halogen light; type: cell-based; settings: methylene blue 0.001% or 0.025%, without halogen light
E. Coli = settings: gram negative (E. Coli); cited from earlier work
Staph aureus = settings: gram positive (Staph aureus); cited from earlier work

Structure (SMILES): CN(C)c1ccc2nc3ccc(=[N+](C)C)cc-3sc2c1 [methylene blue]
- bacterial killing (P. gingivalis ATCC 33277; methylene blue 0.01%, without light exposure, P. gingivalis culture): statistically significant bacterial killing
- bactericidal effect (P. gingivalis ATCC 33277; methylene blue 0.1%, P. gingivalis): bactericidal effect
- Reduction of bacteria ([1]; 0.05% methylene blue alone, without exposure to light): insignificant
- difference between exposure for 10 and 20 minutes ([1]; either species, any concentration of methylene blue): No statistically significant difference
- reduction in bacteria counts ([1]; light exposure 1 min, methylene blue 0.05% and higher): Significant reduction in bacteria counts
- reduction in bacteria counts ([1]; light exposure 5 min, methylene blue 0.025%): Significant reduction in bacteria counts
- bactericidal effect ([1]; methylene blue 0.01% or higher with red-filtered high-intensity light, exposure less than 10 minutes, accumulated energy 30 J/cm^2): bactericidal effect
- killing with duration of light exposure ([1]; methylene blue 0.025%, time intervals 5 and 10 min, both cultures): statistically significant increased killing with duration
- killing with duration of light exposure ([1]; methylene blue 0.05%, time intervals 1 min, 5 min and 10 min, both cultures): statistically significant increased killing with duration
- bacterial count reduction ([1]; methylene blue 0.075% and 0.1%, light exposure 1 min, both cultures): statistically significant bacterial count reduction
- bactericidal effect ([1]; methylene blue 0.075% and 0.1%, without light exposure): significant bactericidal effect; also recorded: significantly bactericidal
- eradication of Candida albicans (Candida albicans): totally eradicate
- killing bacteria [2]: nor concentrations of methylene blue of 0.001% or 0.025%, without halogen light, appeared to be effective in killing bacteria
- phototoxicity (E. Coli): bacterial cell death
- phototoxicity (Staph aureus): bacterial cell death

Structure (SMILES): Cc1cc2nc3ccc(N(C)C)cc3[s+]c2cc1N.[Cl-] [toluidine blue 0]
- phototoxicity (E. Coli): bacterial cell death
- phototoxicity (Staph aureus): bacterial cell death
